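Step 1: Grow cells in 96-well plates. Step 2: Expose to compound for 48 hours at 5 concentrations. Step 3: Interpolate endpoints linearly; if unreached, use highest concentration. At the GI50, growth is halved.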 Activity calls are given as the source filed them. Rule as the data show it: active = GI50 up to about 1.1 µM and inactive = higher.
Assays:
Experiment in all cases: growth of human tumour cells (NCI), 48 h
BT-549 = system: BT-549
A549 = system: A549
SK-MEL-5 = system: SK-MEL-5
U-251 = system: U-251
OVCAR-4 = system: OVCAR-4
SF-295 = system: SF-295
ACHN = system: ACHN
HL-60 = system: HL-60
PC-3 = system: PC-3
M14 = system: M14
COLO 205 = system: COLO 205
T47D = system: T47D
RPMI-8226 = system: RPMI-8226
HCC 2998 = system: HCC 2998
MDA-MB-435 = system: MDA-MB-435
Malme-3M = system: Malme-3M
SNB-19 = system: SNB-19
UACC-257 = system: UACC-257
Hs-578T = system: Hs-578T
IGROV-1 = system: IGROV-1

Compound	GI50 (BT-549)	GI50 (A549)	GI50 (SK-MEL-5)	GI50 (U-251)	GI50 (OVCAR-4)	GI50 (SF-295)	GI50 (ACHN)	GI50 (HL-60)	GI50 (PC-3)	GI50 (M14)	GI50 (COLO 205)	GI50 (T47D)	GI50 (RPMI-8226)	GI50 (HCC 2998)	GI50 (MDA-MB-435)	GI50 (Malme-3M)	GI50 (SNB-19)	GI50 (UACC-257)	GI50 (Hs-578T)	GI50 (IGROV-1)
CCN(CC)CC(O)CNc1ccc(NCC(O)CCl)c2c1C(=O)c1ccccc1C2=O (stereo not drawn)	2.22 µM (inactive)	9.27 µM (inactive)	7.48 µM (inactive)	10.8 µM (inactive)	6.52 µM (inactive)	9.75 µM (inactive)	2.97 µM (inactive)	3.54 µM (inactive)	6.47 µM (inactive)	3.3 µM (inactive)	6.47 µM (inactive)	21.1 µM (inactive)	4.92 µM (inactive)	7.83 µM (inactive)	4.45 µM (inactive)	13.4 µM (inactive)	12.2 µM (inactive)	6.04 µM (inactive)	11.6 µM (inactive)	10 µM (inactive)
O=c1oc2ccc(Cl)cc2cc1C1=CSC2=NCCN12	19.7 µM (inactive)	40.7 µM (inactive)	19.1 µM (inactive)	23.2 µM (inactive)	23.6 µM (inactive)	23.3 µM (inactive)	37.7 µM (inactive)	21.7 µM (inactive)	21.7 µM (inactive)	31.6 µM (inactive)	20.9 µM (inactive)	25.3 µM (inactive)	20.4 µM (inactive)	14 µM (inactive)	21.5 µM (inactive)	31.1 µM (inactive)	25 µM (inactive)	37.7 µM (inactive)	31.7 µM (inactive)	18.5 µM (inactive)
O=S(=O)(CC(Cl)c1ccccc1)c1nc2ccccc2s1 (stereo not drawn)	2.98 µM (inactive)	19.5 µM (inactive)	4.01 µM (inactive)	12.5 µM (inactive)	19.8 µM (inactive)	17.9 µM (inactive)	15.5 µM (inactive)	2.11 µM (inactive)	16 µM (inactive)	2.29 µM (inactive)	7.93 µM (inactive)	13.2 µM (inactive)	3.35 µM (inactive)	17.5 µM (inactive)	7.71 µM (inactive)	9.16 µM (inactive)	17.8 µM (inactive)	7.8 µM (inactive)	27.6 µM (inactive)	9.12 µM (inactive)
CCCCCCCCCCCCCCCCCc1cccc(OCOCCOC)c1C(=O)O	16.9 µM (inactive)	18.7 µM (inactive)	20 µM (inactive)	20.3 µM (inactive)	19.5 µM (inactive)	18.1 µM (inactive)	19.1 µM (inactive)	20.9 µM (inactive)	17.1 µM (inactive)	16.5 µM (inactive)	20.6 µM (inactive)	16.5 µM (inactive)	24.3 µM (inactive)	19.1 µM (inactive)	19.2 µM (inactive)	10.2 µM (inactive)	21.3 µM (inactive)	20.5 µM (inactive)	18.6 µM (inactive)	16.9 µM (inactive)
O=c1cccc(C2CC(CO)C3CCCCN3C2)[nH]1 (stereo not drawn)	> 100 µM (inactive)	> 100 µM (inactive)	> 100 µM (inactive)	> 100 µM (inactive)	> 100 µM (inactive)	> 100 µM (inactive)	> 100 µM (inactive)	> 100 µM (inactive)	> 100 µM (inactive)	> 100 µM (inactive)	> 100 µM (inactive)	> 100 µM (inactive)	> 100 µM (inactive)	> 100 µM (inactive)	> 100 µM (inactive)	–	> 100 µM (inactive)	> 100 µM (inactive)	> 100 µM (inactive)	> 100 µM (inactive)
CCC/C(=N\NC(=S)N1CC2CCC(CC2)C1)c1ccccn1	0.3 µM (active)	0.414 µM (active)	0.117 µM (active)	0.181 µM (active)	0.395 µM (active)	0.399 µM (active)	0.131 µM (active)	0.00957 µM (active)	0.0906 µM (active)	0.0929 µM (active)	0.0205 µM (active)	0.00425 µM (active)	0.00822 µM (active)	0.344 µM (active)	0.585 µM (active)	–	0.571 µM (active)	0.0252 µM (active)	0.213 µM (active)	0.167 µM (active)
CC(=O)NC1=C(Sc2ccc(Cl)cc2)C(=O)c2ccccc2C1=O	4.81 µM (inactive)	11.5 µM (inactive)	1.85 µM (inactive)	3.84 µM (inactive)	1.63 µM (inactive)	8.81 µM (inactive)	1.8 µM (inactive)	0.285 µM (active)	2.77 µM (inactive)	–	2 µM (inactive)	2.06 µM (inactive)	1.31 µM (inactive)	14.7 µM (inactive)	2.08 µM (inactive)	2.97 µM (inactive)	13.2 µM (inactive)	5.33 µM (inactive)	10.4 µM (inactive)	4.84 µM (inactive)
N#CSCc1cccc(Nc2cc(=O)[nH]c(=O)[nH]2)c1	38 µM (inactive)	> 100 µM (inactive)	26.9 µM (inactive)	94.4 µM (inactive)	31.3 µM (inactive)	> 100 µM (inactive)	> 100 µM (inactive)	–	> 100 µM (inactive)	52 µM (inactive)	37.2 µM (inactive)	> 100 µM (inactive)	47.9 µM (inactive)	43.3 µM (inactive)	> 100 µM (inactive)	31.8 µM (inactive)	> 100 µM (inactive)	85.1 µM (inactive)	46.8 µM (inactive)	> 100 µM (inactive)
COc1cc(-c2nc(SC)nc3c2CCc2ccccc2-3)cc(OC)c1OC	> 100 µM (inactive)	> 100 µM (inactive)	37 µM (inactive)	93.1 µM (inactive)	65 µM (inactive)	91 µM (inactive)	> 100 µM (inactive)	> 100 µM (inactive)	34.5 µM (inactive)	> 100 µM (inactive)	53.5 µM (inactive)	26.8 µM (inactive)	25.8 µM (inactive)	> 100 µM (inactive)	95.1 µM (inactive)	–	> 100 µM (inactive)	90.8 µM (inactive)	> 100 µM (inactive)	65.3 µM (inactive)
N#Cc1c(-c2ccccc2)cc(-c2ccc(Cl)cc2)[nH]c1=S	41.5 µM (inactive)	38.4 µM (inactive)	17.7 µM (inactive)	21.3 µM (inactive)	42.6 µM (inactive)	27.1 µM (inactive)	21.5 µM (inactive)	45.6 µM (inactive)	27.1 µM (inactive)	38.9 µM (inactive)	25.4 µM (inactive)	18.7 µM (inactive)	29.2 µM (inactive)	31.9 µM (inactive)	14.3 µM (inactive)	27 µM (inactive)	32.8 µM (inactive)	–	38.8 µM (inactive)	26.7 µM (inactive)
Oc1cccc(-c2cn3cc(Cl)ccc3n2)c1	51.1 µM (inactive)	51.5 µM (inactive)	16.6 µM (inactive)	69.2 µM (inactive)	32.1 µM (inactive)	39.4 µM (inactive)	43.9 µM (inactive)	5.4 µM (inactive)	29.2 µM (inactive)	49.7 µM (inactive)	33.6 µM (inactive)	12.7 µM (inactive)	–	38.4 µM (inactive)	34.9 µM (inactive)	51.6 µM (inactive)	> 100 µM (inactive)	25.6 µM (inactive)	97.1 µM (inactive)	16.7 µM (inactive)
Cc1cccc2c1C(=O)C(C1OC(=O)c3ccccc31)C2 (stereo not drawn)	> 100 µM (inactive)	> 100 µM (inactive)	95.5 µM (inactive)	61 µM (inactive)	> 100 µM (inactive)	> 100 µM (inactive)	> 100 µM (inactive)	> 100 µM (inactive)	> 100 µM (inactive)	–	> 100 µM (inactive)	> 100 µM (inactive)	92.5 µM (inactive)	> 100 µM (inactive)	> 100 µM (inactive)	> 100 µM (inactive)	> 100 µM (inactive)	> 100 µM (inactive)	43.9 µM (inactive)	> 100 µM (inactive)
CCOC(=O)/C(C(=O)Nc1cccc(C(F)(F)F)c1)=C(/N)N1CCOCC1	> 100 µM (inactive)	> 100 µM (inactive)	–	> 100 µM (inactive)	> 100 µM (inactive)	> 100 µM (inactive)	> 100 µM (inactive)	> 100 µM (inactive)	> 100 µM (inactive)	> 100 µM (inactive)	> 100 µM (inactive)	> 100 µM (inactive)	> 100 µM (inactive)	> 100 µM (inactive)	> 100 µM (inactive)	> 100 µM (inactive)	> 100 µM (inactive)	> 100 µM (inactive)	> 100 µM (inactive)	> 100 µM (inactive)
CC(C)(O)[C@@H]1CC[C@](C)(C2[C@@H](O)C[C@@]3(C)C4C[C@H](OC5OCC(O)C(O)C5O)[C@H]5C(C)(C)[C@@H](OC6OCC(O)C(O)C6OC6OCC(O)C(O)C6O)CC[C@@]56C[C@@]46CC[C@]23C)O1 (stereo partly drawn)	> 100 µM (inactive)	> 100 µM (inactive)	> 100 µM (inactive)	> 100 µM (inactive)	> 100 µM (inactive)	> 100 µM (inactive)	–	> 100 µM (inactive)	> 100 µM (inactive)	> 100 µM (inactive)	> 100 µM (inactive)	> 100 µM (inactive)	> 100 µM (inactive)	> 100 µM (inactive)	> 100 µM (inactive)	–	> 100 µM (inactive)	–	> 100 µM (inactive)	> 100 µM (inactive)
